According to ChEMBL document CHEMBL1148525, “Discovery of huperzine A-tacrine hybrids as potent inhibitors of human cholinesterases targeting their midgorge recognition sites” (J Med Chem, 2006):

How the values were obtained:
Acetylcholinesterase = Acetylcholinesterase (Homo sapiens, UniProt P22303)
Cholinesterase = Cholinesterase (Homo sapiens, UniProt P06276)
Sequence of Cholinesterase (P06276 whole entry): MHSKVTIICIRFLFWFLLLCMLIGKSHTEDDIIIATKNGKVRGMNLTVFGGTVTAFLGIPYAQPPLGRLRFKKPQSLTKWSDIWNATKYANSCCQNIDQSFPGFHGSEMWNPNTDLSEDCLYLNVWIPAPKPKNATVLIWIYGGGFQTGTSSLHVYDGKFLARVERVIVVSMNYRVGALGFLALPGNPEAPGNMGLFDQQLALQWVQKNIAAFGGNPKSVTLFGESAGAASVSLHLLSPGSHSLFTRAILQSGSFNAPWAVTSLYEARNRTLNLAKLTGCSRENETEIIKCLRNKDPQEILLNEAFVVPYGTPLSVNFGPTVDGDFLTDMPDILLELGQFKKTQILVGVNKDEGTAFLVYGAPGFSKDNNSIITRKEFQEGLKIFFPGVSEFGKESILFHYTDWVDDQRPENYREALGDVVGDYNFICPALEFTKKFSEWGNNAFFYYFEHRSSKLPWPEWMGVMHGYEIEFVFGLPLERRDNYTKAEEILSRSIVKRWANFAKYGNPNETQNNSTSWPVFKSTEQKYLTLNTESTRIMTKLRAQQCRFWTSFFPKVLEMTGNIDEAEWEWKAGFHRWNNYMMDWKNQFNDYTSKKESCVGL
Description: Inhibition of human BuChE

Sequence of Acetylcholinesterase (P22303 whole entry): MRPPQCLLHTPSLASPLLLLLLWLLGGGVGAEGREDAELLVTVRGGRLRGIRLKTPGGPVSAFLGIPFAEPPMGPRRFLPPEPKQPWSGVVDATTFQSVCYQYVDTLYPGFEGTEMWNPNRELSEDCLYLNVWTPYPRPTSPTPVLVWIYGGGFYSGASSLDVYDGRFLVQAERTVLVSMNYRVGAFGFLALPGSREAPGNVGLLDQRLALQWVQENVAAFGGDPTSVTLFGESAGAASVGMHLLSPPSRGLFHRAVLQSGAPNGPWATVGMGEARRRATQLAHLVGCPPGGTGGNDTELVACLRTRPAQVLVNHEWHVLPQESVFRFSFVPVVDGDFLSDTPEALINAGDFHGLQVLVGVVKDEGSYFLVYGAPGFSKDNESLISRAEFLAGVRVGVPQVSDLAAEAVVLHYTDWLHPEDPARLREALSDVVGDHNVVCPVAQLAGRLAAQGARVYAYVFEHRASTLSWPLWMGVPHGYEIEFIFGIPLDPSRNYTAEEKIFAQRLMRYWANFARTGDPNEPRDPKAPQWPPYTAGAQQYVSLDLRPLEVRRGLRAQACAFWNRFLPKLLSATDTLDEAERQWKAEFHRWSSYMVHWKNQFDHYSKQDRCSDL

SMILES | Ki (Acetylcholinesterase) [µM] | Ki (Cholinesterase) [µM]
C/C=C1\C2C=C(C)C[C@]1(N)CC(NCCCCCCCNc1c3c(nc4ccccc14)CCCC3)C2(C)C (stereo not given in full) | 0.0165 | 0.0208
C/C=C1\C2C=C(C)C[C@]1(N)CC(NCCCCCCCNc1c3c(nc4ccccc14)CCCC3)C2 (stereo not given in full) | 0.0157 | 0.0308
C/C=C1\[C@H]2C=C(C)C[C@]1(N)c1ccc(=O)[nH]c1C2 [HUPERZINE A] | – | > 1
